Assay results from ChEMBL document CHEMBL1201862, “PubChem BioAssay data set” (2004).
Activity calls are given as the source filed them.

Assays:
Coagulation factor XII = target: T1, Coagulation factor XII (Homo sapiens, UniProt P00748); format: functional;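 also: activated factor XIIa alpha cleaving a fluorogenic AMC peptide substrate; inhibitor potency from loss of enzyme activity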
T1 sequence (P00748 whole entry): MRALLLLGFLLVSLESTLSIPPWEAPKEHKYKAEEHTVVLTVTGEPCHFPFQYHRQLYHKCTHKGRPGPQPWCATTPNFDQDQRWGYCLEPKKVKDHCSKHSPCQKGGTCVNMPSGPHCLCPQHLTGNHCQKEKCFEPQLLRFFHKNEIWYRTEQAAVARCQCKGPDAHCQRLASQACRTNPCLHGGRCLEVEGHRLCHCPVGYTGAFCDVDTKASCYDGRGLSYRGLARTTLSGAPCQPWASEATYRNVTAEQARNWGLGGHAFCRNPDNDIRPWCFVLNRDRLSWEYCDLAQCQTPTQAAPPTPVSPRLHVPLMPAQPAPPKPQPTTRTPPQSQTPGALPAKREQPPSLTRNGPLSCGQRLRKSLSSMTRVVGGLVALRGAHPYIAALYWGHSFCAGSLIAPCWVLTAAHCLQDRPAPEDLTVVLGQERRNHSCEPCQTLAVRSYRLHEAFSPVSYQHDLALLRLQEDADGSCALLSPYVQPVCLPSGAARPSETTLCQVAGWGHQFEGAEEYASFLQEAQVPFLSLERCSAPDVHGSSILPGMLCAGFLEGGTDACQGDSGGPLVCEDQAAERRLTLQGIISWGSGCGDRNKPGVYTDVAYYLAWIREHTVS

[1] = target: DNA dC->dU-editing enzyme APOBEC-3A (Homo sapiens, UniProt P31941); test: Dose Response confirmation of small molecule APOBEC3A DNA Deaminase Inhibitors via a fluorescence-based single-stranded DNA deaminase assay. [Related pubchem assays (depositor defined):AID493011, AID493024]; format: functional
[2] = target: DNA dC->dU-editing enzyme APOBEC-3G (Homo sapiens, UniProt Q9HC16); format: functional;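 also: Dose-response counterscreen measuring inhibition of APOBEC3G DNA deaminase activity, run while confirming APOBEC3A inhibitors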
[3] = target: T2, Voltage-gated N-type calcium channel alpha-1B subunit/Amyloid beta A4 precursor protein-binding family A member 1 (Homo sapiens, UniProt Q00975+Q02410); format: protein assay
[4] = target: T2, Voltage-gated N-type calcium channel alpha-1B subunit/Amyloid beta A4 precursor protein-binding family A member 1; format: protein assay; remark: listed apart in the source
[5] = target: T3, Short transient receptor potential channel 4 (Mus musculus, UniProt Q9QUQ5); test: mouse TRPC4 channel activators, dose response, cell-based, HEK293 TRPC4/mu-opioid, Fluo-4 calcium (AID 434937); format: functional
T3 sequence (Q9QUQ5 whole entry): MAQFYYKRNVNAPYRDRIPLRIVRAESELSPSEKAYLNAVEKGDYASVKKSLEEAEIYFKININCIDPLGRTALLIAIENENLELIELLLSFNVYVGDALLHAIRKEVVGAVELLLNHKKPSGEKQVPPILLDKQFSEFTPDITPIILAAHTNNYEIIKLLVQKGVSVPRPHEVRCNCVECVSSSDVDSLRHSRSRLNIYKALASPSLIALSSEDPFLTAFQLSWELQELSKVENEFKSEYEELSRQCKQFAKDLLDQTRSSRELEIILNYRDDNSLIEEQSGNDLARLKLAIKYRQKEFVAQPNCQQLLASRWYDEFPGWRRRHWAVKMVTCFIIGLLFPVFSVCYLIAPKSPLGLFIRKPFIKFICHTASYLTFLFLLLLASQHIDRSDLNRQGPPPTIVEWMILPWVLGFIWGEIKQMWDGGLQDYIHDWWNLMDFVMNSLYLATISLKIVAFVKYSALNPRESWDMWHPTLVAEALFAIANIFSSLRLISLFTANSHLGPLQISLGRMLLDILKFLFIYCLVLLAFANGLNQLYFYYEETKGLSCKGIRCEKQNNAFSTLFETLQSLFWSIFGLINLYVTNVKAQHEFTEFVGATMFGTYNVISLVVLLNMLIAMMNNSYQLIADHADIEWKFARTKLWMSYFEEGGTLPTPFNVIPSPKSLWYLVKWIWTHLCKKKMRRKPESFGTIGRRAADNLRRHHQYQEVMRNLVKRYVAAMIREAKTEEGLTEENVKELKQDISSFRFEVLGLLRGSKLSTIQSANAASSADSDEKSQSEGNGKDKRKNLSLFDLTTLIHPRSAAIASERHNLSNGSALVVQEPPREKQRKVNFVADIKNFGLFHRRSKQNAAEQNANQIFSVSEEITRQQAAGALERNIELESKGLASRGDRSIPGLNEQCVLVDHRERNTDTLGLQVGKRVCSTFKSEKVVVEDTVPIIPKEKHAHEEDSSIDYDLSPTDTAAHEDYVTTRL

[6] = Luminescence Cell-Based Dose Confirmation HTS to Identify Inhibitors of Platelet Dense Granule Release. [Related pubchem assays: 1663 (Primary HTS), 1678 (Summary of Project)]; format: functional
[7] = target: Luciferin 4-monooxygenase (Photinus pyralis, UniProt P08659); test: firefly luciferase enzyme inhibitors, dose response, biochemical, luminescence (AID 1891)
Phosphomannomutase 2 = target: T4, Phosphomannomutase 2 (Homo sapiens, UniProt O15305); test: Counter screen SAR assay for PMM2 inhibitors via a fluorescence intensity assay. [Related pubchem assays (depositor defined):AID1545, AID1574]
T4 sequence (O15305 whole entry): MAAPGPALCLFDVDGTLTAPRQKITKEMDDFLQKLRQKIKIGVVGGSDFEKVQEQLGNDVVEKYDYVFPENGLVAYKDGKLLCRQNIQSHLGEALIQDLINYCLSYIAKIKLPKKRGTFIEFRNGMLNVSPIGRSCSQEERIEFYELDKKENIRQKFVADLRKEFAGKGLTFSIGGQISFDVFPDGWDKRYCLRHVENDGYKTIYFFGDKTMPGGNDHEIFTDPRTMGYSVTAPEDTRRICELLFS

[8] = target: T5, Mannose-6-phosphate isomerase (Homo sapiens, UniProt P34949); test: PMI enzyme inhibitors, confirmation, biochemical, fluorescence intensity (AID 1535)
T5 sequence (P34949 whole entry): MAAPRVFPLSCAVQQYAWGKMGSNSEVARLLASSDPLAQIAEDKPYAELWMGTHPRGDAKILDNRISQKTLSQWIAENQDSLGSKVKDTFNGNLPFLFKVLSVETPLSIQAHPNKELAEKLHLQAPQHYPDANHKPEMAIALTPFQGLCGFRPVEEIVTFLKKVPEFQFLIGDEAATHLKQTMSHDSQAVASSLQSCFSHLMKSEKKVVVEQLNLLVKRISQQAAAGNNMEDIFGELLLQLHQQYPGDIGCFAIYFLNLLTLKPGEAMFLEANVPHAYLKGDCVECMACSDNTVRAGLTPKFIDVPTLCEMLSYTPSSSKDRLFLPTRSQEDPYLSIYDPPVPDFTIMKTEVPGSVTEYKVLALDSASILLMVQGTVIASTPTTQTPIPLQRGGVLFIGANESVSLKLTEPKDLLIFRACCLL

Troponin, cardiac muscle = Troponin, cardiac muscle (Homo sapiens, UniProt P19429+P45379+P63316); test: Fluorescence-based biochemical high throughput dose response assay for activators of the calcium sensitivity of cardiac Regulated Thin Filaments (RTF). [Related pubchem assays (depositor defined):AID493008, AID493018, AID504382, AID504383]; format: protein-complex assay
Hexokinase = target: T6, Hexokinase (Trypanosoma brucei, UniProt Q38C41); test: Confirmation assay for inhibitors of Trypanosoma brucei hexokinase 1-Analogue-first series. [Related pubchem assays (depositor defined):AID1430, AID1632, AID2516, AID2560, AID2579, AID2600, AID449725, AID492951]; format: functional
T6 sequence (Q38C41 whole entry): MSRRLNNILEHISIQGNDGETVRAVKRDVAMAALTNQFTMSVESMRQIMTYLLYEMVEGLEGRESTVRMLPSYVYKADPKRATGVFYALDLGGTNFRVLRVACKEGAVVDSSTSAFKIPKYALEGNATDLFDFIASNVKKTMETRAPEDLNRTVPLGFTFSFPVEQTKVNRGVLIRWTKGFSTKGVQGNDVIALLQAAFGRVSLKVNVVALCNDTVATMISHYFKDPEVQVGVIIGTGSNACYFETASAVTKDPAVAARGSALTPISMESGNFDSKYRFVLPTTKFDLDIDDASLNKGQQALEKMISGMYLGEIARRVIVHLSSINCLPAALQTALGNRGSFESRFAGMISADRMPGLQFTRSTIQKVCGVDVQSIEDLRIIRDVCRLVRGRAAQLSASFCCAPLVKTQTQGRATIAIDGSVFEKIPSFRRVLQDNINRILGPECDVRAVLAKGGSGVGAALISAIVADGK

[9] = target: Glucose-6-phosphate 1-dehydrogenase (Homo sapiens, UniProt P11413); test: human G6PD enzyme inhibitors, dose response, selectivity assay for P. falciparum G6PD inhibitor project, biochemical, fluorescence (AID 504792); format: functional
[10] = target: Alkaline phosphatase, placental type (Homo sapiens, UniProt P05187); test: PLAP enzyme inhibitors, confirmation, biochemical, luminescence (AID 1512); format: functional
[11] = target: T7, Alkaline phosphatase, tissue-nonspecific isozyme (Homo sapiens, UniProt P05186); test: human TNAP enzyme inhibitors, SAR follow-up, biochemical, luminescent, dose response (AID 1056)
T7 sequence (P05186 whole entry): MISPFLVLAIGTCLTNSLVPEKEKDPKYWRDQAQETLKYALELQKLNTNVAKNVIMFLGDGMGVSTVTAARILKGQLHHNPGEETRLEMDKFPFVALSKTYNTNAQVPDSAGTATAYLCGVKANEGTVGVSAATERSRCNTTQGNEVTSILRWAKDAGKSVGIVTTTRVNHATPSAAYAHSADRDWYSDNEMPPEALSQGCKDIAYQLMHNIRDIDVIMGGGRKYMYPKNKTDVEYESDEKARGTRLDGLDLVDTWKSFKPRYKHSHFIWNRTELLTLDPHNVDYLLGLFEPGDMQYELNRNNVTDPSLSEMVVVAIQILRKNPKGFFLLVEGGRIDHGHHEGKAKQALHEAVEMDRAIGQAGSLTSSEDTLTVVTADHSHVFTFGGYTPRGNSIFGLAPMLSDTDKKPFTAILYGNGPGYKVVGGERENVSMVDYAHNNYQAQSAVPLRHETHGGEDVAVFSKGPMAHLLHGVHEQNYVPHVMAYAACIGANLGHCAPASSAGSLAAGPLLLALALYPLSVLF

T2 sequence (Q00975 whole entry): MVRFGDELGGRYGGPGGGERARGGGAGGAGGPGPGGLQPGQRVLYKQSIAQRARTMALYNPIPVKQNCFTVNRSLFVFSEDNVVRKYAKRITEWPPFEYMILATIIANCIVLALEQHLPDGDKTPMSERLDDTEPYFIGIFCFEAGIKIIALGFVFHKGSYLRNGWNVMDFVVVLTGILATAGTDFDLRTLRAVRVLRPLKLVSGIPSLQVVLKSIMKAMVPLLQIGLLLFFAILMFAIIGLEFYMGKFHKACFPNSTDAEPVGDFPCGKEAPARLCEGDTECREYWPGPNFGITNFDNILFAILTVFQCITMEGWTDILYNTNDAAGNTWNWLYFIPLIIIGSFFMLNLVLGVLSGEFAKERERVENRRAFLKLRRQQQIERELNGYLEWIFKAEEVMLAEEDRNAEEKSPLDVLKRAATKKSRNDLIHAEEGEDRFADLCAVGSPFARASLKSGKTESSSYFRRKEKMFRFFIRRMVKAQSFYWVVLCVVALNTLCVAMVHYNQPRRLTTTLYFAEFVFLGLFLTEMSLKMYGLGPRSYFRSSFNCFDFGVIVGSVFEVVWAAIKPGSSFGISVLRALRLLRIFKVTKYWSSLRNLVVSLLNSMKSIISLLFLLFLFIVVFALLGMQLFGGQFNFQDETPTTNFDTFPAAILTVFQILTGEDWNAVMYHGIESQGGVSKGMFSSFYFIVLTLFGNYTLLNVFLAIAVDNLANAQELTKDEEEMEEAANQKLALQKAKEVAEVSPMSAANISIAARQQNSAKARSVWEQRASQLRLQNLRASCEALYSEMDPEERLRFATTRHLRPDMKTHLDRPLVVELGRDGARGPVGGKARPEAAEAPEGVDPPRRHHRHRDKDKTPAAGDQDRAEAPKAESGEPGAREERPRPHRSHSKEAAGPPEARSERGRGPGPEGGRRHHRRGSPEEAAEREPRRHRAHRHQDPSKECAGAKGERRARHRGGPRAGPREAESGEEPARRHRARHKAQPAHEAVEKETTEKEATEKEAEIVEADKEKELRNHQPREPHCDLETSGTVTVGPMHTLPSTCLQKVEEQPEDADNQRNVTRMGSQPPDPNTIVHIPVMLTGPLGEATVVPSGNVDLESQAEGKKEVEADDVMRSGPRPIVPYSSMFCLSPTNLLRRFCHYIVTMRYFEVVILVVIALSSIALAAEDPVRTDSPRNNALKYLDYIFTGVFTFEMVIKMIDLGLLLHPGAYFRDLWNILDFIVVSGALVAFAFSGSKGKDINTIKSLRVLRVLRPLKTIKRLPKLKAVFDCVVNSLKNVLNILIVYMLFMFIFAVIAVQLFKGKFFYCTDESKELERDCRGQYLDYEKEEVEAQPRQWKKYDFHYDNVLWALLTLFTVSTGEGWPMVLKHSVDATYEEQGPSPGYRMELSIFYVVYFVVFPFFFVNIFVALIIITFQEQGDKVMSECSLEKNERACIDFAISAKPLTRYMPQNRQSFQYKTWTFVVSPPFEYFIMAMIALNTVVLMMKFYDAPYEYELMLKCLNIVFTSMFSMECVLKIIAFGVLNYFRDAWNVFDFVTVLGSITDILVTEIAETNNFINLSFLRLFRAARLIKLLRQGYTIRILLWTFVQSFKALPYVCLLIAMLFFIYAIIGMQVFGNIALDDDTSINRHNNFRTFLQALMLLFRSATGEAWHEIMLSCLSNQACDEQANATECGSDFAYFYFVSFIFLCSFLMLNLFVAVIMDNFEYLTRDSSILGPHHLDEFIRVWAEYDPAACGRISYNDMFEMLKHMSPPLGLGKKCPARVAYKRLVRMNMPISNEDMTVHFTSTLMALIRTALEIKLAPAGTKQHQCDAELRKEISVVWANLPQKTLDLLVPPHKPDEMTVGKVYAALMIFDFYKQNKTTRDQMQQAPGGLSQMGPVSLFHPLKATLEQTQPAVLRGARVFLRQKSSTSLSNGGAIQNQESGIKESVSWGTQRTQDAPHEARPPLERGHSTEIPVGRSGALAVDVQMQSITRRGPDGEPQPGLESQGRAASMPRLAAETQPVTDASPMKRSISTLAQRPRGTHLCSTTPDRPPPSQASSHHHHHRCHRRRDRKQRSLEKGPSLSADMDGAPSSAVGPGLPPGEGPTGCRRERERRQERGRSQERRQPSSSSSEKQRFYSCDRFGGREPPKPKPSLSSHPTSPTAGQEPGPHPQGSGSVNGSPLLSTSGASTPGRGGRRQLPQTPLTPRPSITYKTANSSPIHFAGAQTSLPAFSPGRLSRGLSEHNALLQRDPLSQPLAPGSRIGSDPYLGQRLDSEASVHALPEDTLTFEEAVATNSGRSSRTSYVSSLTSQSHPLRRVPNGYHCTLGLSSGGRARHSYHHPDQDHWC
T2 sequence (Q02410 whole entry): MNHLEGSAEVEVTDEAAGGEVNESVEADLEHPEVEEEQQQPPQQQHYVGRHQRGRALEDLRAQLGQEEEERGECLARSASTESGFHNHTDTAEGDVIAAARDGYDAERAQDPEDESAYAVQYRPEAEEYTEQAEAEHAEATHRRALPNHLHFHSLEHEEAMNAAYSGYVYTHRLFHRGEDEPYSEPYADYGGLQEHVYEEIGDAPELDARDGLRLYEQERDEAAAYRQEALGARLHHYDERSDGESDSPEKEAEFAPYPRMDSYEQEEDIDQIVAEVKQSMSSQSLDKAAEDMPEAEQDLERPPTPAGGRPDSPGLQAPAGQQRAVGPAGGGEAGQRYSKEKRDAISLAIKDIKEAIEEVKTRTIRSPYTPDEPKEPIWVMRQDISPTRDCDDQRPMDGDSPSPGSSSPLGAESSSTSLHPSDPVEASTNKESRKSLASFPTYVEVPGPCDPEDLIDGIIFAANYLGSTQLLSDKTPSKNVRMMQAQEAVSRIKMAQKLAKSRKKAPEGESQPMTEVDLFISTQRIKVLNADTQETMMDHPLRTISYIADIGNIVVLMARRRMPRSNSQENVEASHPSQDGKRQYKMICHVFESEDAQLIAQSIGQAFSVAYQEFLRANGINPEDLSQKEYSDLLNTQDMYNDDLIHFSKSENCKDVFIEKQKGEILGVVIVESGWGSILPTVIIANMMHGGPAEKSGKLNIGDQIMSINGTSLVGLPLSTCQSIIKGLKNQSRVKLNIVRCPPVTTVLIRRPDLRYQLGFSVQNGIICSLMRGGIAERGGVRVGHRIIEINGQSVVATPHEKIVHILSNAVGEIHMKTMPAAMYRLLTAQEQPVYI
Chain of Alkaline phosphatase, placental type (P05187 whole entry): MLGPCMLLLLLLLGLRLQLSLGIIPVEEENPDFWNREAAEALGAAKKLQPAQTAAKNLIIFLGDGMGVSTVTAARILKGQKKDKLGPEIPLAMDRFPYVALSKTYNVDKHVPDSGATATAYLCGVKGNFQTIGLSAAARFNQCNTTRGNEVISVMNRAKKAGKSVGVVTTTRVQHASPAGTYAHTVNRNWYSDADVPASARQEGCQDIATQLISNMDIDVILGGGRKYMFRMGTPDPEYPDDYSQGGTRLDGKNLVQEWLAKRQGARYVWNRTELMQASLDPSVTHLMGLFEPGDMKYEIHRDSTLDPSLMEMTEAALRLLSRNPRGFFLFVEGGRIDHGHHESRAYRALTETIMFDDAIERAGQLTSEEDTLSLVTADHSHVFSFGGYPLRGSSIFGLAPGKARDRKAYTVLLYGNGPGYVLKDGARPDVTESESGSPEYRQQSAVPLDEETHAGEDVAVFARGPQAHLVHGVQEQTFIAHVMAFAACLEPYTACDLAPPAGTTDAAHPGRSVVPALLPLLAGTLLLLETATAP
Chain of DNA dC->dU-editing enzyme APOBEC-3A (P31941 whole entry): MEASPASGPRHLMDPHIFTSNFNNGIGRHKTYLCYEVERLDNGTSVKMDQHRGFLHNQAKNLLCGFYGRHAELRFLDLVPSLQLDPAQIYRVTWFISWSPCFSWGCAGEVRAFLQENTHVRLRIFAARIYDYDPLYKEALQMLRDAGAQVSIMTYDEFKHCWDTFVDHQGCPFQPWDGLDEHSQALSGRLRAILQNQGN
Chain of Luciferin 4-monooxygenase (P08659 whole entry): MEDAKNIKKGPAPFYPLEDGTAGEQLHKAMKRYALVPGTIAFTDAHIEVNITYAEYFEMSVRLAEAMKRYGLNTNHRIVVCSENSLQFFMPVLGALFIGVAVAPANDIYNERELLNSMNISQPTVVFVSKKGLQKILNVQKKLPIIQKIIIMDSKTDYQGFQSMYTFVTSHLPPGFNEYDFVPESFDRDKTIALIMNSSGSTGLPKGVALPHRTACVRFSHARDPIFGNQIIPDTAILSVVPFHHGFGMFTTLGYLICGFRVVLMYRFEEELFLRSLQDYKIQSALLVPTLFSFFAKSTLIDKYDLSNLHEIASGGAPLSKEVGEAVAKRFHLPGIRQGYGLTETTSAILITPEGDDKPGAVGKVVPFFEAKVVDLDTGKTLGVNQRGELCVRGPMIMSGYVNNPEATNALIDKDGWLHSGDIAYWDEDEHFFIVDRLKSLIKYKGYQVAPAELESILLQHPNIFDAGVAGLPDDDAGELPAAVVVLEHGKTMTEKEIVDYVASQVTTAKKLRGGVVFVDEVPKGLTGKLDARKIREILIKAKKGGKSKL
Chain of Glucose-6-phosphate 1-dehydrogenase (P11413 whole entry): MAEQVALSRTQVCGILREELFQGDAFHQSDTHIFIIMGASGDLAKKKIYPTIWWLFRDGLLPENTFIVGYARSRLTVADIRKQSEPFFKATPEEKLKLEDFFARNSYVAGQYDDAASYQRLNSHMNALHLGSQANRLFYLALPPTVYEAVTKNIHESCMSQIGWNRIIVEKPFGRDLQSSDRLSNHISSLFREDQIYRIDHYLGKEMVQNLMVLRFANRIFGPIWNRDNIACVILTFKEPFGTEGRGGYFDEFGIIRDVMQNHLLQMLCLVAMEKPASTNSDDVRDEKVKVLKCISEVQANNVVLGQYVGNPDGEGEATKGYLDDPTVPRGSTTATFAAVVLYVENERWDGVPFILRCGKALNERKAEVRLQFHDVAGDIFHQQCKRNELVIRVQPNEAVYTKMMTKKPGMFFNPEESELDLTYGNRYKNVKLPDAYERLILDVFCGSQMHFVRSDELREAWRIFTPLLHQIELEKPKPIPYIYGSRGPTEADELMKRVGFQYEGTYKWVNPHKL

For `O=S(=O)(c1ccc(S(=O)(=O)N2CCCC2)cc1)N1CCCCCC1`, the IC50 (Coagulation factor XII) was > 50 µM (inactive).
For `N#Cc1cccc(NC(=O)C[n+]2c3n(c4ccc(C(F)(F)F)cc42)CCCCC3)c1`, the IC50 [1] was 1.97 µM (active) and the IC50 [2] was 2.75 µM (active).
In the case of `CN1C(=O)C(=C/C=C/Nc2ccccc2)C(=O)N(C)C1=S`, the IC50 [3] is reported as > 50 µM (inactive) and the IC50 [4] is reported as 6.18 µM (active).
With `COc1ccc(-c2nn(-c3ccccc3)cc2CNCc2cccnc2)c(F)c1` the EC50 [5] was 5.96 µM (active).
For `COc1ccc(N2C(=O)CC(Nc3cccc([N+](=O)[O-])c3)C2=O)cc1` (centres undefined), the IC50 (Coagulation factor XII) was > 50 µM (inactive).
In the case of `CN1CCCC(OC(=O)c2cc(Br)ccc2Cl)C1` (centres undefined), the EC50 [6] is reported as > 56.1 µM (not active), the EC50 [5] is reported as 0.211 µM (active) and the EC50 [7] is reported as > 112 µM (not active).
For `Cc1cc2n(n1)SC(Nc1cc(Cl)ccc1Cl)N2` (centres undefined), the IC50 (Phosphomannomutase 2) was > 100 µM (inactive) and the IC50 [8] was > 50 µM (inactive).
For `O=C(O)c1cc(NCc2ccc(F)cc2)ccc1N1CCOCC1`, the EC50 (Troponin, cardiac muscle) was > 71.5 µM (inactive).
With `CC(=O)Nc1ccc(OC(=O)c2cc3cc(Br)ccc3oc2=O)cc1` the IC50 [3] was > 50 µM (inactive) and the IC50 [4] was 2 µM (active).
For `COc1ccc(C(=O)Nc2cc(Cl)ccc2C#N)cc1`, the IC50 (Hexokinase) was > 25 µM (inactive).
In the case of `COc1ccc(N2C(=O)c3ccc(Cl)cc3C2=O)cc1`, the IC50 (Hexokinase) is reported as > 25 µM (inactive).
In the case of `O=c1c2ccccc2sn1-c1ccccc1Cl`, the IC50 (Hexokinase) is reported as 1.97 µM (active).
For `Cc1csc2c(N3CCN(C(=O)Nc4ccc(OC(F)(F)F)cc4)CC3)ncnc12`, the EC50 [5] was 1.88 µM (active).
For `COc1cc(C(=O)O/N=C2\C=CC(=O)C=C2C)cc(OC)c1OC`, the IC50 (Coagulation factor XII) was 10.3 µM (active) and the IC50 [9] was > 80 µM (inactive).
With `CC1(C)CC(=O)C=C(Nc2ccccc2N)C1` the EC50 (Troponin, cardiac muscle) was > 71.5 µM (inactive).
With `Cc1ccc(-c2nnc(SCC(=O)c3ccc(O)c(O)c3)n2-c2ccccc2)cc1` the IC50 [10] was > 100 µM (inactive) and the IC50 [11] was > 100 µM (inactive).
